Laboratory results: publication PMC7021728, “Structure of the agonist 12–HHT in its BLT2 receptor-bound state” (Scientific Reports, 2020)
Substitutions are numbered along the chain they refer to.

Assays:
BLT2 S174^ECL2A = target: T1, BLT2 S174^ECL2A (Homo sapiens, UniProt Q9NPC1, S174A); experiment: Gi protein activation catalyzed by BLT2 mutant; format: biochemical; settings: S174 mutation compared to wild-type, in words
T1 construct: made in house
T1 sequence (Q9NPC1 1-358 S174A): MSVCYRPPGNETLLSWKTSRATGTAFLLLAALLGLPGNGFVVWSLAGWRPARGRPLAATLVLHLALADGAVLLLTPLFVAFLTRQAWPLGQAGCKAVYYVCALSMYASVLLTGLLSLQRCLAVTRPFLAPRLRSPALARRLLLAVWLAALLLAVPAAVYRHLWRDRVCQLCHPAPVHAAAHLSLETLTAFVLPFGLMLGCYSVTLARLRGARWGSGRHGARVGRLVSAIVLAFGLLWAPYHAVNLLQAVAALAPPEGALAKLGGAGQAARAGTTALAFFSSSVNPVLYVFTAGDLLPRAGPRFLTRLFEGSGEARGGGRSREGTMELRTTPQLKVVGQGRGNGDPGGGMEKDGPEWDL
Protocol: (§1) All mutations were introduced in the wild-type BLT2 receptor by PCR-mediated mutagenesis using the QuickChange multisite-directed mutagenesis kit (Stratagene) and the wild-type BLT2 construct as a template. Mutations were confirmed by nucleotide sequencing.
(§2) Gαi2 and Gβ1γ2 were prepared as previously described. Briefly, agonist-dependent functional coupling of the purified receptor to Gαi2β1γ2 was assessed through the rate of GTPγS binding at increasing agonist concentrations determined by monitoring the relative increase in the intrinsic fluorescence ( λexcitation=300nm , λemission=345nm ) of Gαi2 (200 nM of purified G protein) in the presence of BLT2 (20 nM) in buffer containing 10 mM MOPS, pH 7.2, 130 mM NaCl, and 2 mM MgCl2 at 15 °C after the addition of 10 μM GTPγS. The data were normalized to the fluorescence maximum obtained in the presence of saturating concentrations in 12–HHT (10 μM).

BLT2 R270^7.35A = target: T2, BLT2 R270^7.35A (Homo sapiens, UniProt Q9NPC1, R270A); experiment: Gi protein activation catalyzed by BLT2 mutant; format: biochemical; settings: R270 mutation compared to wild-type, in words
T2 construct: made in house
T2 sequence (Q9NPC1 1-358 R270A): T1 sequence (Q9NPC1 1-358 S174A) with A174S, R270A
Protocol: as §1, §2

BLT2 = target: BLT2; design: method as in PMID 10934230; settings: cited from earlier work
purified BLT2 receptor = target: purified BLT2 receptor; design: method as in PMID 21688157; settings: purified BLT2 associated with amphipols in solution, in vitro; cited from earlier work
BLT1 = target: BLT1; design: method as in PMID 10934230; settings: membrane fractions, BLT1 transfected HEK 293 cells; in cellulo; read-out: equilibrium dissociation constant (Kd); cited from earlier work
[1] = tested on: BLT1 (residue R156 in BLT1 mutated to alanine); design: method as in PMID 17237498; settings: in words; cited from earlier work

SMILES: CCCCC/C=C\C[C@@H](O)/C=C/C=C/C=C\[C@@H](O)CCCC(=O)O [LTB4, leukotriene B4]
- effect of the mutation on ligand binding (BLT2 S174^ECL2A): does not affect the binding
- effect of the mutation on ligand binding (BLT2 R270^7.35A): does not affect the binding
- Kd (BLT2; membrane fractions, BLT2 transfected HEK 293 cells, in cellulo, read-out: equilibrium dissociation constant (Kd)): ~0.02 µM
- Kd weaker in the case of BLT2 compared to BLT1 (BLT2; transfected HEK 293 cells): 20 fold
- Kd (purified BLT2 receptor): ~0.2 µM
- Kd (BLT1): ~0.001 µM
- effect of the mutation on LTB4 binding [1]: complete loss of LTB4 binding
